Test results taken from the METLIN SMRT retention time set (Domingo-Almenara et al. 2019).

Test: gradient 5% acetonitrile 3 min, to 50% in 2 min, to 85% in 15 min, held 3 min, 100 µL/min
Conditions: column: Zorbax Extend-C18 2.1 x 50 mm; eluents: water / acetonitrile, 0.1% formic acid
How it was run: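 Using water and acetonitrile that each contained 0.1% formic acid, mixtures of ~100 pure standards were separated at 100 μL/min on a Zorbax Extend-C18 column (2.1 × 50 mm, 1.8 μm). The HPLC fed a quadrupole time-of-flight mass spectrometer working in positive and negative ionization mode, with dead and dwell volumes of 40 μL and 900 μL. Data were acquired over 3 months. Retention time was read from computationally picked adduct peaks after manual inspection of each.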

RP-LC retention time | Compound
810 s | Cc1ccc(C)c(NC(=O)C2CCCN2S(=O)(=O)c2ccc3c(c2)CCCC(=O)N3)c1 (stereo not given)
1210 s | COc1ccc(C)cc1NS(=O)(=O)c1cc(-c2cc(C(F)(F)F)on2)sc1C
670 s | Cc1ccn2c(NC(=O)c3cccc(F)c3)c(-c3ccccc3)nc2c1
1110 s | CCc1nc(-c2csc(S(=O)(=O)N3CCCC(C(=O)N4CCc5ccccc54)C3)c2)no1 (stereo not given)
538 s | CCC(=O)NCc1nc2c(n1CC)CN(S(=O)(=O)c1ccc(Cl)cc1)CC2
1150 s | CCOc1ccc(C2Cn3nnc(-c4nc(-c5ccsc5)no4)c3CO2)cc1 (stereo not given)
905 s | O=C(NCCc1csc(-c2cccc(F)c2)n1)c1cccs1
808 s | COc1cccc(CNc2nccc(-n3nc(C)cc3C)n2)c1
585 s | Cc1ccc2cc(CN3C[C@@H](CO)[C@H](c4ccccn4)C3)c(=O)[nH]c2c1
764 s | CCCN(CC1CCOC1)C(=O)Nc1ccc(C)cc1 (stereo not given)
861 s | CCOc1ccc(-c2[nH]ncc2CNS(=O)(=O)Cc2ccc(Cl)cc2)cc1
602 s | COc1cccc(CN2CCC([C@H]3[C@@H](OC)C(=O)N3C(C)C)CC2)n1
600 s | Cc1ccc(-n2cc3c(N4CCCC(C(=O)NCc5ccc(N(C)C)cc5)C4)ncnc3n2)cc1 (stereo not given)
1080 s | Cc1ccc(-n2ccc(=O)c(-c3nc(-c4ccc(F)c(Br)c4)no3)n2)cc1
762 s | Cc1ccc(CCNC(=O)C2CCCN(c3nnc(C)c4c(C)n(-c5ccccc5)nc34)C2)cc1 (stereo not given)
730 s | COc1ccc(OC)c(CNC(=O)C2CCCN2S(=O)(=O)c2cc3c(cc2C)NC(=O)CO3)c1 (stereo not given)
613 s | COCCCNC(=O)C1CCN(c2ncnc3c2oc2ccccc23)CC1
846 s | CCc1noc(NC(C)=O)c1-c1ccc(OC)c(S(=O)(=O)Nc2cc(C)ccc2C)c1
860 s | COC(=O)c1cnc2nc(-c3ccccc3Cl)nn2c1C
593 s | Cc1nn(-c2ccc(C(=O)N3CCN(C)CC3)cc2)c2c1C(=O)CC(C)(C)C2
739 s | O=C(NC1CCCCC1)c1csc(-c2ccc(N3CCCC3)nc2)n1
1190 s | Cc1ccc(N2CCN(C(=O)c3nnc(-c4ccc(S(=O)(=O)N5CCCC5)cc4)o3)CC2)c(C)c1
867 s | COc1ccc(OC)c(CCNC(=O)c2c(N3CCCC3=O)c3cc(OC)ccc3n2C)c1

RP-LC retention time | Compound
578 s | CN(C)CC1CN(C(=O)c2ccc(F)c(F)c2)CC12CCOCC2 (stereo not given)
1020 s | Cc1cccc(-n2c(N3CCCC(C(=O)NCc4ccc(C)c(C)c4)C3)nc3ccsc3c2=O)c1 (stereo not given)
746 s | O=C(CCC1CCCC1)Nc1c2c(nn1-c1cccc(Cl)c1)CS(=O)C2 (stereo not given)
728 s | O=C(c1ccc2[nH]ccc2c1)N1CCN(c2cc(-c3ccccc3)[nH]n2)CC1
594 s | CCCCNC(=O)C1CCCN(c2nnc3c(Cl)cccn23)C1 (stereo not given)
764 s | Clc1cccc(Cc2nc(-c3ccc(-n4ccnc4)nc3)no2)c1
875 s | Cc1ccc(N2CCC(NC(=O)Nc3ccccc3C)C2=O)cc1C (stereo not given)
843 s | CCOC(=O)c1[nH]c(C)c(CCC(=O)N2CCC(C(=O)NCCc3ccc(C)cc3)CC2)c1C
1010 s | Cc1cc(Cl)ccc1N1C(=O)CN(S(C)(=O)=O)CC1(C)C(=O)NC1CCCCCCC1 (stereo not given)
729 s | CC1CCN(C(=O)c2cn(-c3cc(N4CCOCC4)ncn3)cn2)CC1
623 s | Cc1cc(N2CCN(C(=O)c3cncc(Br)c3)CC2)nc2ccccc12
1020 s | CCOc1ccccc1-c1nc(-c2cn(Cc3ccc(F)cc3)nn2)no1
1080 s | CCCn1c(=O)c(C)nc2cc(-c3noc(-c4ccc(C#N)cc4)n3)ccc21
728 s | CCNC(=O)c1n[nH]c2c1CN(C(=O)c1ccc(OC(F)(F)F)cc1)CC2
683 s | CCCNc1cc(N2CCCC(CCC(=O)NCc3ccc(F)cc3)C2)ncn1 (stereo not given)
567 s | CN(C)C[C@@H]1CN(c2ccccn2)C[C@H]1NC(=O)c1ccc2ccccc2n1
706 s | CNC(=O)c1cc2c(cn1)[nH]c1ccccc12
973 s | CCN1CCCc2cc(C(=O)NCc3ccc(OC)cc3OC)sc21
794 s | O=c1oc2cc(O)c(Cl)cc2c2c1CCC2
812 s | CCc1nc(-c2c(C)cc(C)nc2NC(=O)c2ccc(F)cc2)no1
589 s | CCCCN1CCN(C(=O)c2cn3cc(Cl)ccc3n2)CC1
1160 s | CCn1cc(-c2nc(C(=O)Nc3ccc(C)cc3)cs2)c2cccnc21
